Marks after values point to notes of the source that are not given here.

For this test, the system named is MV522 human non-small cell lung tumor xenograph model. The test can be described thus: Example 1: MV522 xenograft, NPI-2358 single agent and with docetaxel (TGI/TGD). Format: in vivo, athymic nu/nu mice. The note with it: for MDS day ± SD: endpoint 1.5 cm^3. On the procedure: In vivo evaluation of plinabulin (NPI-2358) as a single agent and in combination with docetaxel in the MV522 human non-small cell lung tumor xenograph model in athymic nu/nu mice
The objective of the example was to determine potential additive or synergistic effects of plinabulin in combination with docetaxel in the MV522 model by exploring the scheduling of the drug combination explored by administering one of the agents 2 hours after the first drug was given. Significant endpoints for this experiment included mean tumor growth inhibition (TGI) or regression, tumor growth delay (TGD) in large tumor, weight loss, and mortality.
Female nude mice (Hsd: Athymic Nude-Foxn1^nu) between 5 and 6 weeks of age weighing approximately 20 grams were obtained from Harlan, Inc. (Madison, Wis.). MV522 is a conventional human NSC metastatic lung tumor cell line (U.S. Pat. No. 7,700,615 or 7,629,380). Animals were injected subcutaneously (SC) with approximately 1×10^7 MV522 cells harvested from tissue culture. When tumors grew to approximately 105 cubic millimeters (mm^3) in size (3 days following implantation), animals were pair-matched by tumor size into treatment and control groups; each treatment group contained eight mice. Animals were ear-tagged and followed individually throughout the experiment.
Initial doses were administered on Day 1 following pair-matching. The experiment was carried out as a tumor growth inhibition (TGI) and tumor growth delay (TGD) study. Group 1 endpoint was when tumor volume reached 1.2 cm^3 (TGI) and the treated groups endpoint was when each individual animal's tumor volume reached 1.5 cm^3 (TGD). […] To serve as negative controls, NPI-2358 vehicle and docetaxel vehicle were injected IP on a 2×WKLY×3 schedule and IV on a Q2D×3 schedule, respectively. Docetaxel was administered by intravenous (IV) injection via tail vein at 15 mg/kg once every other day for three treatments (Q2D×3) or at 25 mg/kg on a Q7D×3 schedule (every 7 day for three treatment). Docetaxel and docetaxel vehicle were administered two hours prior to NPI-2358 vehicle and NPI-2358, respectively, in Groups 7-9 and 12-14. For Groups 10, 11, 15, and 16, NPI-2358 was given two hours prior to docetaxel.
Mice were weighed and caliper tumor measurements taken. Tumor growth inhibition (TGI) values were calculated for each group containing treated animals using the formula below: […]
Animals experiencing complete tumor responses or animals experiencing technical or drug-related deaths were censored from final TGI calculations; however animals experiencing partial tumor responses were included in the final TGI calculations. […] TGI values for each treatment group are reported at study completion; these calculations are based on the final study day.
This arm of the study was ended on Day 74 at the sponsor's request. […] Upon TGD study completion, a Median Day of Sacrifice (MDS) was calculated for the control (C) and each treatment (T) group and used to determine tumor growth delay (T-C) using the following equations: MDS=Median [ΣIDS] T−C=MDSTreated−MDSControl
Where IDS (Individual Day of Sacrifice) is the day when each animal reached its tumor volume endpoint (1.5 cm^3); only animals reaching this endpoint were included in TGD calculations. Gross or net log10 cell kill for each treatment group was determined using the following equations: […]

[1] abbreviates: G7: docetaxel 15 mg/kg IV Q2Dx3 + NPI-2358 vehicle.
Where [2] appears, read: G12: docetaxel 25 mg/kg IV Q7Dx3 + NPI-2358 vehicle.

For `CC(=O)O[C@@]12CO[C@@H]1C[C@H](O)[C@@]1(C)C(=O)[C@H](O)C3=C(C)[C@@H](OC(=O)[C@H](O)[C@@H](NC(=O)OC(C)(C)C)c4ccccc4)C[C@@](O)([C@@H](OC(=O)c4ccccc4)[C@H]21)C3(C)C` [Docetaxel, docetaxel], under setting [1], the “#CR (Day 25)” value was 0/0, the “#CR (TGD study)” value was 0/0, the “#LTS (long-term survivors)” value was 0 and the “#PR (Day 25)” value is given as 0/0. For the same molecule, under setting [1], the “#PR (TGD study)” value is 0/0, the “% TGI” value is given as 88%, the “Final tumor volume (Day 25) mean ± SEM” value turned out to be 259 ± 45 mm^3 and the Log10 cell kill is reported as 0.4. Under setting [1], the “T-C (tumor growth delay)” value came out at 16 and the “MDS day ± SD” value was 45 ± 9 days. Also, under setting [2], the “#CR (Day 25)” value turned out to be 0, the “#CR (TGD study)” value is listed as 0/0, the “#LTS (long-term survivors)” value is given as 2 and the “#PR (Day 25)” value is listed as 8. Further, under setting [2], the “#PR (TGD study)” value is 0/0, the “% TR (Day 25)” value came out at 58%, the Activity rating entry was “+ (1.0-1.9)” and the “Final tumor volume (Day 25) mean ± SEM” value amounted to 43 ± 4 mm^3. In addition, under setting [2], the Log10 cell kill is 1.0, the “T-C (tumor growth delay)” value is recorded as 39 and the “MDS day ± SD” value was found to be 68 ± 6 days. Further, the “% TGI” value (G12: docetaxel 25 mg/kg IV Q7Dx3 + NPI-2358 vehicle, value includes tumors with PR) was 107^† %. Moreover, the “Tumor volume / tumor burden compared to vehicle control” value (single agent, Example 1) was “strong decrease in tumor burden”.

Source of the values: US10596169B2, “Cancer treatment with combination of plinabulin and taxane” (BeyondSpring Inc., priority 2013, dated 2020).
